Test results as given in ChEMBL document CHEMBL4715851, “Research advances on selective phosphatidylinositol 3 kinase δ (PI3Kδ) inhibitors” (Bioorg Med Chem Lett, 2020).

Tests used:
[1] = Inhibition of C-terminal PI3Kdelta/p85 (unknown origin) expressed in baculovirus expression system using Phosphatidylinositol as substrate in presence of ATP by TR-FRET assay; parameters: species or system Homo sapiens
[2] = biological target: T1, Phosphatidylinositol 4,5-bisphosphate 3-kinase catalytic subunit delta isoform (Homo sapiens, UniProt O00329); assay: Inhibition of PI3K-delta (unknown origin)
T1 sequence (O00329 whole entry): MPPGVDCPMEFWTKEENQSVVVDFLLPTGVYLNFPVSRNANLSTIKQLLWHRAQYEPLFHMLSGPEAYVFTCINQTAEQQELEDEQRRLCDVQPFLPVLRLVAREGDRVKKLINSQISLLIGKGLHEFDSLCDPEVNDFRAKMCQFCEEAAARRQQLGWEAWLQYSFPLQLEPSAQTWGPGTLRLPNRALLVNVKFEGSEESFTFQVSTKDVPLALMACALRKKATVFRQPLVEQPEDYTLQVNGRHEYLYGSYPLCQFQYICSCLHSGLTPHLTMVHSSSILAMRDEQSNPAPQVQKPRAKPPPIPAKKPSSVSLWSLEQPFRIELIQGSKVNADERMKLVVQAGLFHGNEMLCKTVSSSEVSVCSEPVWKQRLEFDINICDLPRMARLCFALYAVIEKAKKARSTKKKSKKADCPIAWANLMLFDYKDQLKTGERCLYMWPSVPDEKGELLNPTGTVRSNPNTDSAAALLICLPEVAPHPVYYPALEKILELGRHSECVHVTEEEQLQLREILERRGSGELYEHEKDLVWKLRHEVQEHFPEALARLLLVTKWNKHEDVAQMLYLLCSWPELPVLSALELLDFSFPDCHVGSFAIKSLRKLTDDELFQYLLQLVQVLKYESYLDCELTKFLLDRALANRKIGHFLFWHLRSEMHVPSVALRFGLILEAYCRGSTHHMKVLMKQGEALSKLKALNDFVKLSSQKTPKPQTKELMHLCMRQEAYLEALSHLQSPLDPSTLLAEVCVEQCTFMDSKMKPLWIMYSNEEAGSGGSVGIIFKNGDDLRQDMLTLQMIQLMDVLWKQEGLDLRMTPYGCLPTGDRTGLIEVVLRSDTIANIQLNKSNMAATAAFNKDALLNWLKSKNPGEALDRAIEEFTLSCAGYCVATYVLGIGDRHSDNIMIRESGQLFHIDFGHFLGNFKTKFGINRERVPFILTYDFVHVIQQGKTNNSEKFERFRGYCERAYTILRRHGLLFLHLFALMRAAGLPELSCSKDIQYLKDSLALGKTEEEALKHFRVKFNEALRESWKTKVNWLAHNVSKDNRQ

Row | Compound | IC50 [1] [nM] | IC50 [2] [nM]
1 | C[C@H](Nc1ncnc2scnc12)c1cc2cccc(-c3cnn(C)c3)c2c(=O)n1-c1ccccc1 | < 100 | –
2 | C=Cc1ccc2oc3ccc(=O)n(-c4cccc(NC(=O)c5ccc(OC)nc5)c4)c3c2c1 | – | 170
